{
  "source": "patent US11083709B2",
  "about": "“Compounds, compositions, and methods of increasing CFTR activity” (Proteostasis Therapeutics, Inc., priority 2015, dated 2021)",
  "key": {"[1]": {"test_system": "CFTR, genotype 3849 + 10kb C > T/N1303K", "experiment": "CFTR activity by mutation type, 3849 + 10kb C > T/N1303K (Table 7)", "type": "cell-based, human"}, "[2]": {"target": "T1, ΔF508-CFTR (Homo sapiens, UniProt P13569, DEL508-508)", "T1 construct": "primary lung epithelial cells (hBEs) homozygous for the Cystic Fibrosis-causing ΔF508 mutation; endogenous in cells; host or cells: primary lung epithelial cells (hBEs) homozygous for ΔF508", "T1 sequence (P13569 with tags, fused parts or gaps DEL508-508)": "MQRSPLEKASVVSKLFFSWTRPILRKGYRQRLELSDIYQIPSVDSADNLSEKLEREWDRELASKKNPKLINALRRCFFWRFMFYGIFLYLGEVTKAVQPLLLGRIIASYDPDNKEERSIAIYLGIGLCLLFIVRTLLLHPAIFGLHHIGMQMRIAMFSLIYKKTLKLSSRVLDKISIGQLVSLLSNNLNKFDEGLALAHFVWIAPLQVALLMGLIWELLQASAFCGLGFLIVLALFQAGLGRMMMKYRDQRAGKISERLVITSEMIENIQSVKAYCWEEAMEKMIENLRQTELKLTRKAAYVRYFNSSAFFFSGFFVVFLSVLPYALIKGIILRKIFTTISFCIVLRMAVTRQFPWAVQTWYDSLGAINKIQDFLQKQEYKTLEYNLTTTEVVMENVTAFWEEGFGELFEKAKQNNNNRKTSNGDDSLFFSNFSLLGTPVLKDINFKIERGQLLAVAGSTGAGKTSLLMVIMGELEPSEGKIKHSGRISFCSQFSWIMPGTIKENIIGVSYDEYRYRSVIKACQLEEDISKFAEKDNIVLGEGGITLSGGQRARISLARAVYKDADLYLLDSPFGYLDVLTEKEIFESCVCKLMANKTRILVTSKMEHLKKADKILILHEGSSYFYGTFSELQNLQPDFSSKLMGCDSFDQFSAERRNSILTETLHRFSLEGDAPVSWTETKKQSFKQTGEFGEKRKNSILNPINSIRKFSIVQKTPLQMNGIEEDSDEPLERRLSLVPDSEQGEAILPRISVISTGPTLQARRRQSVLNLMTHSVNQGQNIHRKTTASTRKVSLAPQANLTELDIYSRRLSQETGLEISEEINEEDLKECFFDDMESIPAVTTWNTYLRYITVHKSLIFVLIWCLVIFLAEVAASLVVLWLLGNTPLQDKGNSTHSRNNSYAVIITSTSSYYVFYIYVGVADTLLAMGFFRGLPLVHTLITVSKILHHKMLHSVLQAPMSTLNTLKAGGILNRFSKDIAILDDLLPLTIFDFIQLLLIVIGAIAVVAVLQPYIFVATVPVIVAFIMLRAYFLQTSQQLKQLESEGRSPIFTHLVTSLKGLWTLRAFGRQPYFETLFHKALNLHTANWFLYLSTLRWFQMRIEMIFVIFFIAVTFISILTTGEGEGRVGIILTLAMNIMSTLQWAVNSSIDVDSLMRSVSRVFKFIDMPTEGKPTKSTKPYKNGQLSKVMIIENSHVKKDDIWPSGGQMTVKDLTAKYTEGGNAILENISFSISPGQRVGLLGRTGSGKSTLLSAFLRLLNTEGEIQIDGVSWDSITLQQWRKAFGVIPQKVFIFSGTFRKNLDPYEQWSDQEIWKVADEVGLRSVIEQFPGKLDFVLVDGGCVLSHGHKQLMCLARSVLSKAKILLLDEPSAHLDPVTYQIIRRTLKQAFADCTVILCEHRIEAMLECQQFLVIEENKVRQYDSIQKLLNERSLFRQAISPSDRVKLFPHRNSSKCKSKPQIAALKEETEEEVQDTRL", "experiment": "hBE equivalent current (Ieq) assay, primary lung epithelial cells homozygous for ΔF508", "type": "cell-based", "settings": "compound at 10 uM and VX-809 at 1 uM, relative to VX-809 (1 uM); 24 h treatment", "protocol": "Primary lung epithelial cells homozygous for the Cystic Fibrosis-causing ΔF508 mutation were differentiated for a minimum of 4 weeks in an air-liquid interface on Costar 24 well HTS filter plates prior to the equivalent current (Ieq) measurements. Cells were apically mucus-washed for 30 minutes 24h prior to treatment with compounds. The basolateral media was removed and replaced with media containing the compound of interest diluted to its final concentration from DMSO stocks. Treated cells were incubated at 37° C. and 5% CO2 for 24 hours. At the end of the treatment period, the media was changed to the Ieq experimental solution for 30 minutes before the experiment and plates are maintained in a CO2-free incubator during this period. The plates containing the cells were then placed in pre-warmed heating blocks at 36° C.±0.5 for 15 minutes before measurements are taken. The transepithelial voltage (VT) and conductance (GT) were measured using a custom 24 channel current clamp (TECC-24) with 24 well electrode manifold. The Ieq assay measurements were made following additions with standardized time periods: • 1. The baseline VT and GT values were measured for approximately 20 minutes. • 2. Benzamil was added to block ENaC for 15 minutes. • 3. Forskolin plus VX-770 (ivacaftor) were added to maximally activate ΔF508-CFTR for 27 minutes. • 4. Bumetanide was added to inhibit the NaK2Cl cotransporter and shut-off secretion of chloride.\nThe activity data captured was the area under the curve (AUC) for the traces of the equivalent chloride current. The AUC was collected from the time of the forskolin/VX-770 addition until the inhibition by bumetanide addition. Correction in response to compound treatment was scored as the increase in the AUC for compound-treated samples over that of vehicle-treated samples.\nThe results are shown below in Table 2. ++ indicates activity ≥25% run at 10 uM of VX-809 at 1 uM, + indicates activity 10 to <25% run at 10 uM of VX-809 at 1 uM, ** indicates activity ≥200% of VX-809 (1 uM) with compound at 10 uM and VX-809 at 1 uM; * indicates activity 100-200% of VX-809 (1 uM) with compound at 10 uM and VX-809 at 1 uM. ^## indicates activity ≥200% of VX-809 (3 uM) with compound at 10 uM and VX-809 at 3 uM; ^# indicates activity 100-200% of VX-809 (3 uM) with compound at 10 uM and VX-809 at 3 uM."}, "[3]": {"target": "T1, ΔF508-CFTR", "experiment": "Ussing measurements, hBEs homozygous for ΔF508", "type": "cell-based", "settings": "compound at 10 uM and VX-809 at 3 uM, relative to VX-809 (3 uM); 24 h treatment", "protocol": "As discussed above, Ussing measurements can be used to measure CFTR activity. In this example, primary lung epithelial cells (hBEs) homozygous for the Cystic Fibrosis-causing ΔF508 mutation were differentiated for a minimum of 4 weeks in an air-liquid interface on SnapWell filter plates prior to the Ussing measurements. Cells were apically mucus-washed for 30 minutes prior to treatment with compounds. The basolateral media was removed and replaced with media containing the compound of interest diluted to its final concentration from DMSO stocks. Treated cells were incubated at 37° C. and 5% CO2 for 24 hours. […] The short-circuit current was measured in voltage clamp-mode (Vhold=0 mV), and the entire assay was conducted at a temperature of 36° C.-36.5° C. Once the voltages stabilized, the chambers were clamped, and data was recorded by pulse readings every 5 seconds. Following baseline current stabilization, the following additions were applied and the changes in current and resistance of the cells was monitored: • 1. […]\nThe inhibitable current (that current that is blocked by CFTRinh-172) is measured as the specific activity of the ΔF508-CFTR channel, and increases in response to compound in this activity over that observed in vehicle-treated samples are identified as the correction of ΔF508-CFTR function imparted by the compound tested. […]"}, "[4]": {"target": "T2, CFTR in F508/F508del HBEs (Homo sapiens, UniProt P13569, DEL508-508)", "T2 construct": "Activity in F508/F508del HBEs (relative); endogenous in cells; host or cells: primary lung epithelial cells (HBEs), genotype F508/F508del [sic]", "T2 sequence (P13569 with tags, fused parts or gaps DEL508-508)": "as above", "experiment": "Ussing measurements, F508del/F508del HBEs", "type": "cell-based", "settings": "genotype F508del/F508del", "protocol": "As discussed above, Ussing measurements were used to measure CFTR activity. In this method, primary lung epithelial cells (hBEs) with a Cystic fibrosis causing class I mutation were differentiated for a minimum of 4 weeks in an air-liquid interface on SnapWell™ filter plates prior to the Ussing measurements. Cells were apically mucus-washed for 30 minutes prior to treatment with compounds. The basolateral media was removed and replaced with media containing the compound of interest diluted to its final concentration from DMSO or aqueous stocks. Treated cells were incubated at 37° C. and 5% CO2 for 24 hours. At the end of the treatment period, the cells on filters were transferred to the Ussing chamber and equilibrated for 30 minutes. The short-circuit current was measured in voltage clamp-mode (Vhold=0 mV), and the entire assay was conducted at a temperature of 36° C.-36.5° C. Once the voltages stabilized, the chambers were clamped, and data were recorded by pulse readings every 5 seconds. Following baseline current stabilization, the following additions were applied and the changes in current and resistance of the cells were monitored: • 1. Benzamil to the apical chamber to inhibit ENaC sodium channel. • 2. Forskolin to both chambers to activate ΔF508-CFTR by phosphorylation. • 3. Ivacaftor or Genistein to the apical chamber to potentiate ΔF508-CFTR channel opening. • 4. CFTRinh-172 to the apical chamber to inhibit ΔF508-CFTR Cl-conductance.\nThe forskolin-sensitive current and inhibitable current (that potentiated current that was blocked by CFTRinh-172) were measured as the specific activity of the ΔF508-CFTR channel, and increase in response to compound in this activity over that observed in vehicle-treated samples were identified as the correction of ΔF508-CFTR function imparted by the compound tested.\nThe results are shown below in Tables 3 and 4. Compound A is 10 uM and VX-809 is 3 uM and ivacaftor is 1 uM."}},
  "data": [
    {"smiles": "C[C@@H](O)c1nnc([C@H]2C[C@H](NC(=O)c3cc(-c4ccccc4)no3)C2)o1", "note": "[Example 6, N-(trans-3-(5-((R)-1-hydroxyethyl)-1,3,4-oxadiazol-2-yl)cyclobutyl)-3-phenylisoxazole-5-carboxamide]", "values": [
      {"measurement": "Combination with ivacaftor, activity", "setting": "[1]; compound A 10uM + ivacaftor 1uM, relative activity of 100% = ivacaftor", "value": "+++ (+++ indicates activity at 10uM of 100% to <150% of the indicated relative activity treatment)"},
      {"measurement": "Stand Alone activity", "setting": "[1]; compound A 10uM, relative activity of 100% = ivacaftor (1uM)", "value": "++ (++ indicates activity at 10uM of 50% to <100% of the indicated relative activity treatment)"},
      {"measurement": "leq: activity of compound with VX-809, % of VX-809 (AUC of equivalent chloride current)", "setting": "[2]", "value": "* (* indicates activity 100-200% of VX-809 (1 uM) with compound at 10 uM and VX-809 at 1 uM)"},
      {"measurement": "Ussing: activity of compound with VX-809, % of VX-809", "setting": "[3]", "value": "## (## indicates activity ≥200% of VX-809 (3 uM) with compound at 10 uM and VX-809 at 3 uM)"},
      {"measurement": "Combination with ivacaftor and VX-661, activity", "setting": "[4]; compound A 10uM + ivacaftor 1uM + VX-661 3 uM, relative activity of 100% = ivacaftor and VX-661", "value": "++++ (++++ indicates activity at 10uM of >150% of the indicated relative activity treatment)"},
      {"measurement": "Combination with ivacaftor and lumacaftor, activity", "setting": "[4]; compound A 10uM + ivacaftor 1uM + lumacaftor 3 uM, relative activity of 100% = ivacaftor and lumacaftor", "value": "++++ (++++ indicates activity at 10uM of >150% of the indicated relative activity treatment)"},
      {"measurement": "Stand Alone activity", "setting": "[4]; compound A 10uM, relative activity of 100% = ivacaftor (1uM) and lumacaftor (3 uM)", "value": "+ (+ indicates activity at 10uM of 15% to <50% of the indicated relative activity treatment)"}
    ]}
  ]
}
